Assay results: US20240293402A1, “FORMULATION CONTAINING DIHYDROPYRIDAZINE-3,5-DIONE DERIVATIVE (as amended)” (CHUGAI SEIYAKU KABUSHIKI KAISHA, priority 2021, published 2024)

Experiments:
PiT-1 = target: T1, PiT-1 (Homo sapiens, UniProt Q8WUM9); conditions: general statement, reported in Patent Literatures 6 and 7; cited from earlier work
T1 sequence (Q8WUM9 1-679): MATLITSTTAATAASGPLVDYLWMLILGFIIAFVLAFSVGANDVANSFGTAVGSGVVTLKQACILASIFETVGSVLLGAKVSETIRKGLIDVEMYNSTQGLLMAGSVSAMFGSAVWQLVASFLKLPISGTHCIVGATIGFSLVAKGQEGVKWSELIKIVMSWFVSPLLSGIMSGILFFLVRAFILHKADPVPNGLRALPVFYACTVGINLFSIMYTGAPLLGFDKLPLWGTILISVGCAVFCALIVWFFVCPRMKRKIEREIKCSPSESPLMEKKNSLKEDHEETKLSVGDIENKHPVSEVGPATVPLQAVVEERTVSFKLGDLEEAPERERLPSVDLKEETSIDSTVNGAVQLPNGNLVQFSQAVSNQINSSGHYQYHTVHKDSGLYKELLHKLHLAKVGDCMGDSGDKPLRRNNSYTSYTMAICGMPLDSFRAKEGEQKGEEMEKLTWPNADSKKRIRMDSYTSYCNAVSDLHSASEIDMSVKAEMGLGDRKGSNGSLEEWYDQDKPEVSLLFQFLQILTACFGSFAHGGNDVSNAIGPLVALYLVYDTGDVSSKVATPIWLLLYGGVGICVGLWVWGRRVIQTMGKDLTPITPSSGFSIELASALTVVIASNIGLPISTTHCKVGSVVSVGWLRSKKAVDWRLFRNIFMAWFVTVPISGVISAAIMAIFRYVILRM

NaPi-IIb = target: T2, NaPi-IIb (Homo sapiens, UniProt O95436); conditions: general statement, reported in Patent Literatures 6 and 7; cited from earlier work
T2 sequence (O95436 1-690): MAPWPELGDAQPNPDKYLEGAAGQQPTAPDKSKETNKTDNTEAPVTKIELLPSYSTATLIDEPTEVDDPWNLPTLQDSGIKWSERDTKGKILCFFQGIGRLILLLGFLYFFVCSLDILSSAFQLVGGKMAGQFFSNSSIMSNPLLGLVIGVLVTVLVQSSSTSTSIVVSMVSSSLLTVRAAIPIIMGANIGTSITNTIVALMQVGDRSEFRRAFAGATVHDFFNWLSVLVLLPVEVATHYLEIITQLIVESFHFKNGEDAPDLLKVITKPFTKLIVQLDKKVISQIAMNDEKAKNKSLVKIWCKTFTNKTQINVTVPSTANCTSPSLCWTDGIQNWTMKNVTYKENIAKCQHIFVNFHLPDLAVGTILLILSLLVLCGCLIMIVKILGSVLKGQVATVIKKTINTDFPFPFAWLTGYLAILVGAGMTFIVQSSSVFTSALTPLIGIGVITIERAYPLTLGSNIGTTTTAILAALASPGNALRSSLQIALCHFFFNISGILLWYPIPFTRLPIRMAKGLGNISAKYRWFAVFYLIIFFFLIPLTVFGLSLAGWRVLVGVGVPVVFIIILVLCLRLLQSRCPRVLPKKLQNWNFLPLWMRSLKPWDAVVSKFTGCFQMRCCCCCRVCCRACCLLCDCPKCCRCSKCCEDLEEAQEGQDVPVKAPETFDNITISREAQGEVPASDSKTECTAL

Solubility in water = assay type: physicochemical; conditions: general statement
PiT-2 = target: T3, PiT-2 (Homo sapiens, UniProt Q08357); conditions: general statement, reported in Patent Literatures 6 and 7; cited from earlier work
T3 sequence (Q08357 1-652): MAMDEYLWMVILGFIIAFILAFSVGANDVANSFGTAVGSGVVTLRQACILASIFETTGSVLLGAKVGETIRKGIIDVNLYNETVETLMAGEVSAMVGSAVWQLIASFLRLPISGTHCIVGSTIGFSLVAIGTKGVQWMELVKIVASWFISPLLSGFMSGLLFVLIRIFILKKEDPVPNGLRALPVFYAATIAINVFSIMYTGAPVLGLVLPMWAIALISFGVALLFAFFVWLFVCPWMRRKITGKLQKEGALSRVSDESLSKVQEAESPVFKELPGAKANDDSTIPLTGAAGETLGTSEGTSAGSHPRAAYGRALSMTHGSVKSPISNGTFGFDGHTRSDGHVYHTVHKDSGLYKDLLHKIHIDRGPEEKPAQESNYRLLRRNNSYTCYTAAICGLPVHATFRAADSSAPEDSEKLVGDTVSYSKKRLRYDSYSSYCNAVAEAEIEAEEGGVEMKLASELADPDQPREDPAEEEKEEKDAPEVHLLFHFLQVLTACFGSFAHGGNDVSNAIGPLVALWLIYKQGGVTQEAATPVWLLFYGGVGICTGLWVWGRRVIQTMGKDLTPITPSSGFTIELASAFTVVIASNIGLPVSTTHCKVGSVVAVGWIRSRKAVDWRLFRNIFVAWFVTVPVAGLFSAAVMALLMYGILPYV

solubility in water (Solubility in water): hardly soluble in water
SMILES: COCCN(C)CCOc1ccc(CN2C(=O)C(C(=O)Nc3ccc(C(F)(F)F)cc3-c3cc(C(F)(F)F)ncn3)=C(O)C3(CCCC3)N2C)c(F)c1F.Cc1ccc(S(=O)(=O)O)cc1 [Compound I, 7-[[2,3-difluoro-4-[2-[2-methoxyethyl(methyl)amino]ethoxy]phenyl]methyl]-10-hydroxy-6-methyl-8-oxo-N-[4-(trifluoromethyl)-2-[6-(trifluoromethyl)pyrimidin-4-yl]phenyl]-6,7-diazaspiro[4,5]deca-9-ene-9-carboxamide]
inhibitory action on PiT-1 (PiT-1): strong inhibitory action | inhibitory action on NaPi-IIb (NaPi-IIb): strong inhibitory action | inhibitory action on PiT-2 (PiT-2): strong inhibitory action
